{"source": "ChEMBL document CHEMBL1201862", "about": "“PubChem BioAssay data set” (2004)", "assay_in_all_cases": "DTP human tumour cell line panel, 48 h", "key": {"SK-MEL-2": {"system": "SK-MEL-2"}, "KM12": {"system": "KM12"}, "MDA-MB-435": {"system": "MDA-MB-435"}, "NCI/ADR-RES": {"system": "NCI/ADR-RES"}, "K562": {"system": "K562"}, "EKVX": {"system": "EKVX"}, "BT-549": {"system": "BT-549"}, "SK-MEL-28": {"system": "SK-MEL-28"}, "SR": {"system": "SR"}, "OVCAR-5": {"system": "OVCAR-5"}, "PC-3": {"system": "PC-3"}, "CAKI-1": {"system": "CAKI-1"}, "OVCAR-4": {"system": "OVCAR-4"}, "HL-60": {"system": "HL-60"}, "Hs-578T": {"system": "Hs-578T"}, "NCI-H522": {"system": "NCI-H522"}, "OVCAR-8": {"system": "OVCAR-8"}, "MDA-MB-231": {"system": "MDA-MB-231"}, "786-0": {"system": "786-0"}, "A498": {"system": "A498"}, "ACHN": {"system": "ACHN"}, "Malme-3M": {"system": "Malme-3M"}, "OVCAR-3": {"system": "OVCAR-3"}, "HOP-62": {"system": "HOP-62"}, "M14": {"system": "M14"}, "TK-10": {"system": "TK-10"}, "IGROV-1": {"system": "IGROV-1"}, "MOLT-4": {"system": "MOLT-4"}, "LOX IMVI": {"system": "LOX IMVI"}, "SW-620": {"system": "SW-620"}, "HCT-116": {"system": "HCT-116"}, "MDA-N": {"system": "MDA-N"}, "SF-295": {"system": "SF-295"}, "SNB-19": {"system": "SNB-19"}, "SF-268": {"system": "SF-268"}, "UACC-257": {"system": "UACC-257"}, "HT-29": {"system": "HT-29"}, "A549": {"system": "A549"}, "U-251": {"system": "U-251"}, "HOP-92": {"system": "HOP-92"}, "UACC-62": {"system": "UACC-62"}, "NCI-H460": {"system": "NCI-H460"}, "SK-OV-3": {"system": "SK-OV-3"}, "SNB-75": {"system": "SNB-75"}, "T47D": {"system": "T47D"}, "COLO 205": {"system": "COLO 205"}, "SN12C": {"system": "SN12C"}, "MCF7": {"system": "MCF7"}, "NCI-H226": {"system": "NCI-H226"}, "HCT-15": {"system": "HCT-15"}, "SF-539": {"system": "SF-539"}, "DU-145": {"system": "DU-145"}, "UO-31": {"system": "UO-31"}, "RPMI-8226": {"system": "RPMI-8226"}}, "note": "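How tested: cells in 96-well plates exposed to compound for 48 hours at five concentrations. At the GI50, growth is halved.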 The source made the active and inactive calls. No stated cut-off is given here; in the data, active = GI50 up to about 1.1 µM and inactive = higher.", "data": [{"compound": "NCC(O)CNCC/C=C\\C/C=C\\C/C=C\\C/C=C\\C/C=C\\C/C=C\\CCCCC/C=C\\CCNCC(O)CN", "note": "(centres undefined)", "values": [{"measurement": "GI50", "setting": "SK-MEL-2", "value": "1810 nM (inactive)"}, {"measurement": "GI50", "setting": "KM12", "value": "1580 nM (inactive)"}, {"measurement": "GI50", "setting": "MDA-MB-435", "value": "1650 nM (inactive)"}, {"measurement": "GI50", "setting": "NCI/ADR-RES", "value": "1470 nM (inactive)"}, {"measurement": "GI50", "setting": "K562", "value": "2290 nM (inactive)"}, {"measurement": "GI50", "setting": "EKVX", "value": "731 nM (active)"}, {"measurement": "GI50", "setting": "BT-549", "value": "2940 nM (inactive)"}, {"measurement": "GI50", "setting": "SK-MEL-28", "value": "3400 nM (inactive)"}, {"measurement": "GI50", "setting": "SR", "value": "435 nM (active)"}, {"measurement": "GI50", "setting": "OVCAR-5", "value": "1940 nM (inactive)"}, {"measurement": "GI50", "setting": "PC-3", "value": "1920 nM (inactive)"}, {"measurement": "GI50", "setting": "CAKI-1", "value": "2080 nM (inactive)"}, {"measurement": "GI50", "setting": "OVCAR-4", "value": "1930 nM (inactive)"}, {"measurement": "GI50", "setting": "HL-60", "value": "453 nM (active)"}, {"measurement": "GI50", "setting": "Hs-578T", "value": "1360 nM (inactive)"}, {"measurement": "GI50", "setting": "NCI-H522", "value": "1530 nM (inactive)"}, {"measurement": "GI50", "setting": "OVCAR-8", "value": "1780 nM (inactive)"}, {"measurement": "GI50", "setting": "MDA-MB-231", "value": "1750 nM (inactive)"}, {"measurement": "GI50", "setting": "786-0", "value": "1690 nM (inactive)"}, {"measurement": "GI50", "setting": "A498", "value": "1830 nM (inactive)"}, {"measurement": "GI50", "setting": "ACHN", "value": "1800 nM (inactive)"}, {"measurement": "GI50", "setting": "Malme-3M", "value": "1940 nM (inactive)"}, {"measurement": "GI50", "setting": "OVCAR-3", "value": "1980 nM (inactive)"}, {"measurement": "GI50", "setting": "HOP-62", "value": "1970 nM (inactive)"}, {"measurement": "GI50", "setting": "M14", "value": "1940 nM (inactive)"}, {"measurement": "GI50", "setting": "TK-10", "value": "1570 nM (inactive)"}, {"measurement": "GI50", "setting": "IGROV-1", "value": "1710 nM (inactive)"}, {"measurement": "GI50", "setting": "MOLT-4", "value": "1240 nM (inactive)"}, {"measurement": "GI50", "setting": "LOX IMVI", "value": "1790 nM (inactive)"}, {"measurement": "GI50", "setting": "SW-620", "value": "1780 nM (inactive)"}, {"measurement": "GI50", "setting": "HCT-116", "value": "1780 nM (inactive)"}, {"measurement": "GI50", "setting": "MDA-N", "value": "1670 nM (inactive)"}, {"measurement": "GI50", "setting": "SF-295", "value": "2070 nM (inactive)"}, {"measurement": "GI50", "setting": "SNB-19", "value": "1900 nM (inactive)"}, {"measurement": "GI50", "setting": "SF-268", "value": "1830 nM (inactive)"}, {"measurement": "GI50", "setting": "UACC-257", "value": "2130 nM (inactive)"}, {"measurement": "GI50", "setting": "HT-29", "value": "1750 nM (inactive)"}, {"measurement": "GI50", "setting": "A549", "value": "1850 nM (inactive)"}, {"measurement": "GI50", "setting": "U-251", "value": "1720 nM (inactive)"}, {"measurement": "GI50", "setting": "HOP-92", "value": "2010 nM (inactive)"}, {"measurement": "GI50", "setting": "UACC-62", "value": "1790 nM (inactive)"}, {"measurement": "GI50", "setting": "NCI-H460", "value": "1820 nM (inactive)"}, {"measurement": "GI50", "setting": "SK-OV-3", "value": "2640 nM (inactive)"}, {"measurement": "GI50", "setting": "SNB-75", "value": "1730 nM (inactive)"}, {"measurement": "GI50", "setting": "T47D", "value": "2000 nM (inactive)"}, {"measurement": "GI50", "setting": "COLO 205", "value": "1960 nM (inactive)"}, {"measurement": "GI50", "setting": "SN12C", "value": "1640 nM (inactive)"}, {"measurement": "GI50", "setting": "MCF7", "value": "2150 nM (inactive)"}, {"measurement": "GI50", "setting": "NCI-H226", "value": "2640 nM (inactive)"}, {"measurement": "GI50", "setting": "HCT-15", "value": 1600, "unit": "nM"}, {"measurement": "GI50", "setting": "SF-539", "value": "1900 nM (inactive)"}, {"measurement": "GI50", "setting": "DU-145", "value": "1770 nM (inactive)"}, {"measurement": "GI50", "setting": "UO-31", "value": "1900 nM (inactive)"}, {"measurement": "GI50", "setting": "RPMI-8226", "value": "1660 nM (inactive)"}]}]}
